Results from patent US9795626B2, “Cancer therapy using miRNAs” (THE UNIVERSITY OF WESTERN AUSTRALIA, priority 2012, dated 2017).

Assays:
[1] = test system: 1205Lu melanoma cells; test: xCELLigence real-time cell migration assay; type: cell-based; settings: further study, 20-25 hour period
Source text: (§1) Cell migration and invasion was monitored with a Real-Time Cell Analyser dual-plate (RTCA DP) xCELLigence System (Roche Applied Science; Mannheim, Germany). This instrument employs cellular migration plates (CIM-plate 16) which contain microelectronic sensors on the underside of an 8 μm microporous polyethylene terephthalate (PET) membrane of a Boyden-like upper chamber and a lower chamber containing media or chemoattractant. As cells migrate or invade from the upper chamber to the lower chamber they interact with the sensors causing an increase in electrical impedance. Changes in cell impedance over time relates to a change in the number of cells interacting with the sensors, allowing real-time measurement of cell migration as a cell index value. […] After 48 h incubation cells were trypsinised, resuspended in serum free media and seeded into the upper chamber of CIM-plates. The lower chambers were filled with media containing 10% FBS (chemoattractant) or serum free media as a control. Migration was monitored over a 24 hour period with impedance measurements every 15 min. For invasion assays, the CIM-plates were coated with Matrigel (BD Biosciences; diluted at a ratio of 1:20 in serum free medium) approximately 4 hours prior to seeding cells.

[2] = test system: A2058 melanoma cells; test: xCELLigence real-time cell migration assay; type: cell-based
Source text: as §1

[3] = test system: A375 melanoma cells; test: xCELLigence real-time cell migration assay; type: cell-based; settings: further study, 20-25 hour period
Source text: as §1

[4] = test system: WM266-4 melanoma cells; test: xCELLigence real-time cell migration assay; type: cell-based
Source text: as §1

[5] = test system: 1205Lu melanoma cells; test: xCELLigence real-time cell invasion assay (Matrigel); type: cell-based; settings: further study, 20-25 hour period
Source text: as §1

[6] = test system: A2058 melanoma cells; test: as above; type: cell-based; settings: further study, 20-25 hour period
Source text: as §1

[7] = test system: A375 melanoma cells; test: as above; type: cell-based; settings: further study, 20-25 hour period
Source text: as §1

[8] = test system: WM266-4 melanoma cells; test: as above; type: cell-based; settings: further study, 20-25 hour period
Source text: as §1

[9] = test system: FAK; test: Immunoblotting after transfection of melanoma cells; type: cell-based; settings: WM266-4 and A2058; 30 nM, protein harvested at time of migration assay (48 hours)
Description: (§2) Optimal cell numbers were transfected using Lipofectamine 2000 (Invitrogen) with miR-7-5p (SEQ ID NO: 1; synthesised by Ambion) or miR-NC precursor molecules (hereinafter “miR-NC”; Ambion AM17110) at final concentrations ranging from 1-30 nM. For siRNA transfections, Silencer Select siRNAs (Invitrogen) Negative Control No. 1 (si-NC; 4390843), si-IRS-2 #1 (s16486), si-IRS-2 #2 (s16487) were transfected using Lipofectamine 2000 (Invitrogen) according to the manufacturer's protocol. Cells were harvested 24 hours later for RNA or 2-3 days after transfection for protein extraction.
(§3) Protein was harvested with Cytoplasmic Extract Buffer (CEB)-containing PhosSTOP phosphatase inhibitors (Roche; New South Wales, Australia) and Complete EDTA-free protease inhibitors (Roche). Cell lysates were frozen at −80° C. overnight, cleared by centrifugation at 13,000×g for 5 min, and supernatants collected. Total protein concentrations were determined by Bio-Rad protein assay (Bio-Rad; New South Wales, Australia) as per manufacturer's instructions and using a FLUOstar OPTIMA microplate reader.
(§4) Fifteen μg of total protein samples were resolved on NuPAGE NO VEX 4-12% Bis-Tris gels (Invitrogen) and transferred to polyvinylidene fluoride (PVDF) western blotting membranes (Roche). The blots were blocked for 1 hour with Odyssey Blocking Buffer (Millennium Science, Victoria, Australia) and incubated overnight at 4° C. with anti-IGF1R, anti-phospho-IGF1R, anti-IRS-1, anti-IRS-2, anti-phospo-IRS-2, anti-ERK 1/2, anti-phospho-ERK 1/2, anti-Akt, anti-phospho-Akt (Ser-473), anti-PAK1 (all from Cell Signaling Technology, Beverly, Mass.), or anti-FAK (Santa Cruz Biotechnology), anti-phospho-IRS-2 (Ser-731; Abeam, Cambridge, Mass.), or anti-β-actin (Abcam), followed by incubation with infrared-conjugated secondary antibodies for 1 hour at room temperature. The membranes were scanned with an Odyssey SA scanner to visualize protein expression (LICOR Biosciences, Lincoln, Nebr.).

[10] = test system: IGF1R; test: as above; type: cell-based; settings: melanoma cell lines; 15 nM, 3 days post-transfection, vs miR-NC
Description: as §2, §3, §4

[11] = test system: IRS-1; test: as above; type: cell-based; settings: 15 nM, 3 days post-transfection
Description: as §2, §3, §4

[12] = test system: IRS-2; test: as above; type: cell-based
Description: as §2, §3, §4

[13] = test system: P-Akt; test: as above; type: cell-based; settings: SK-MEL-28, WM266-4 and MM96L; 15 nM, 3 days post-transfection
Description: as §2, §3, §4

[14] = test system: P-ERK 1/2; test: as above; type: cell-based; settings: A2058; 15 nM, 3 days post-transfection
Description: as §2, §3, §4

[15] = test system: P-IGF1R; test: as above; type: cell-based; settings: 15 nM, 3 days post-transfection
Description: as §2, §3, §4

[16] = test system: P-IRS-2; test: as above; type: cell-based
Description: as §2, §3, §4

[17] = test system: PAK1; test: as above; type: cell-based
Description: as §2, §3, §4

[18] = test system: IRS-2 mRNA; test: RT-qPCR of IRS-2 mRNA after transfection; type: cell-based; settings: WM266-4 and A2058; 24 hours after transfection, normalised to GAPDH, vs miR-NC
Description: as §2

[19] = test system: melanoma cell lines; test: Cell viability assay (MTS) after miRNA transfection; type: cell-based; settings: melanoma cells
Description: Cells were seeded in 96-well plates at a density of 2.5×10^3 cells per well and transfected with miRNA precursor molecules as above. Cell viability was measured 5 days after transfection using CellTitre 96 Aqueous One Solution Cell Proliferation Assay Kit (MTS assay) and a FLUOstar OPTIMA microplate reader.

[20] = test system: SK-MEL-28 melanoma cells; test: Cell viability assay (MTS) after miRNA transfection, with or without drug; Bliss synergy analysis; settings: MTS assay, data not shown
[21] = test system: WM266-4 melanoma cells; test: as above; settings: MTS assay, data not shown
[22] = test system: MM96L melanoma cells; test: as above; settings: MTS assay 5 days post-transfection
Description: (§5) Cells were seeded in 96-well plates at a density of 2.5×10^3 cells per well and transfected with miRNA precursor molecules as above. Cell viability was measured 5 days after transfection using CellTitre 96 Aqueous One Solution Cell Proliferation Assay Kit (MTS assay) and a FLUOstar OPTIMA microplate reader. For synergy analysis between drugs and miR-7-5p, cells were plated as above and drug or DMSO was added 3 days after transfection with miR-7-5p or miR-NC for 4 days, at which time cell viability was measured (7 days after transfection).
(§6) Statistical significance was calculated using Student's t test (one-tailed, unpaired) and the level of significance was set at p<0.05. Drug sensitivity (IC50) was calculated using GraphPad Software (GraphPad Prism, version 5.04). The Bliss additivism model was used for synergy analysis. […] Here, Ebliss is the fractional inhibition expected if the combination of miR-7-5p and drug B was exactly additive. If the experimentally measured fractional inhibition is greater than Ebliss, the combination is synergistic.

[23] = test system: A2058 melanoma cells; test: as above; settings: MTS assay 5 days post-transfection
Description: as §5, §6

[24] = further study, 20-25 hour period
[25] = WM266-4 and A2058, 30 nM, protein harvested at time of migration assay (48 hours)
[26] = WM266-4 and A2058, 72 hours after transfection, vs miR-NC

## miR-7-5p: Synthetic miRNA precursor molecules corresponding to human miR-7-5p (Ambion, PM10047); SEQ ID NO: 1 (UGGAAGACUAGUGAUUUUGUUGU; synthetic precursor duplex form, further chemistry not given here; listed as Homo sapiens)
[1]
  rate of cell migration compared with miR-NC: significantly reduced, or even blocked
[2]; 30 nM, seeded 48 hours after transfection, monitored 24 hours
  cell migration compared with miR-NC: significantly inhibited
[2]; [24]
  rate of cell migration compared with miR-NC: significantly reduced, or even blocked
[3]
  rate of cell migration compared with miR-NC: significantly reduced, or even blocked
[4]; 30 nM, seeded 48 hours after transfection, monitored 24 hours, data not shown
  cell migration compared with miR-NC: significantly inhibited
[4]; [24]
  rate of cell migration compared with miR-NC: significantly reduced, or even blocked
[5]
  rate of cell invasion compared with miR-NC: significantly reduced, or even blocked
[6]
  rate of cell invasion compared with miR-NC: significantly reduced, or even blocked
[7]
  rate of cell invasion compared with miR-NC: significantly reduced, or even blocked
[8]
  rate of cell invasion compared with miR-NC: significantly reduced, or even blocked
[9]
  FAK expression: reduction
[10]
  IGF1R expression: No change
[11]; A2058
  IRS-1 expression: decrease
[11]; SK-MEL-28 and WM266-4
  IRS-1 expression: modest increase
[12]; A2058, 15 nM, 3 days post-transfection
  IRS-2 expression: reduced
[12]; [25]
  IRS-2 expression: reduction
[12]; [26]
  expression of IRS-2 protein: reduced
[13]
  P-Akt: downregulated
[14]
  P-ERK 1/2: downregulated
[15]; A2058
  IGF1R phosphorylation: decreased
[15]; MM96L
  IGF1R phosphorylation: increased
[15]; SK-MEL-28
  IGF1R phosphorylation: did not change
[16]; SK-MEL-28, 15 nM, 3 days post-transfection
  IRS-2 phosphorylation: reduced
[16]; [26]
  active form of IRS-2 (P-IRS-2): reduced
[17]; SK-MEL-28, WM266-4, MM96L and A2058, 15 nM, 3 days post-transfection, vs miR-NC
  protein level of PAK1: reductions
[17]; [25]
  PAK1 expression: reduction
[18]
  levels of IRS-2 mRNA: significantly decreased
[19]
  final miR-7-5p concentration at which viability was significantly reduced: 1 nM
[20]
  cell viability compared with miR-NC: significantly reduced
[21]
  cell viability compared with miR-NC: significantly reduced
[22]
  cell viability compared with miR-NC: significantly reduced
[23]
  cell viability compared with miR-NC: significantly reduced
